Test results taken from US5273989A, “3,5-disubstituted 2-isoxazolines and isoxazoles, agents containing them and their use” (Hoechst Aktiengesellschaft, priority 1990, dated 1993).
Structures can show the parent of a compound that is named as a salt. Where two headings read alike, the source gives them in different places.

Legend:
NMDA-induced cramps = assay: Inhibition of NMDA-induced cramps in the mouse; type: in vivo; settings: po, 1 h; for inhibition in vivo at 0.3 mg/kg: 0.3 mg/kg p.o.
Protocol: 4. Inhibition of NMDA-induced-cramps in the mouse
The examples listed below show neuroprotective activity in that they antagonize the cramps induced by NMDA (N-methyl-(D)-aspartate). To this end, intravenous injections of 20-30 mg/kg of NMDA are carried out on a male NMRI (Naval Medical Research Institute) mice of 22-24 g body weight, which leads to stereotypes, clonic cramps and in the majority of cases to mortality. In order to investigate an NMDA-antagonist activity of the test substances, they are administered orally one hour before NMDA. The animals are then observed for the abovementioned symptoms for up to 60 min. The number of animals with clonic cramps and the incidence of mortality, expressed in percent change compared to the control group, is regarded as the evaluation criterion.

[1] = Toxicity (LD50) in the mouse; settings: in vivo
Source text: As the examples investigated show considerable differences in toxicity compared to the standard substances, the LD50 values are also listed in Table 6,

[2] = system: high affinity 3H-D-aspartate absorption, synaptic vesicles (synaptosomes) from rat cortex; assay: "High affinity" absorption of 3H-aspartate in a vesicle preparation from rat brain; type: biochemical; settings: for Stimulation of the 3H-D-aspartate absorption, Stimulation (%): relative to control values (100%)
Protocol: 1. "High affinity" absorption of ^3 H-aspartate in a vesicle preparation from rat brain.
Test principle: Fresh synaptic vesicles (synaptosomes) from rat cortex are incubated with buffer solution and ^3 H-D-aspartate and ^3 H-D-aspartate in the vesicles is measured. Preparations which in comparison to control synaptosomes increase the high affinity ^3 H-D-aspartate absorption and those which prevent the loss of ^3 H-D-aspartate by reliberation are regarded as particularly interesting.
Experimental protocol: The experiments for ^3 H-D-aspartate absorption were carried out by the method of Anand et al. (Biochem. Pharmacol., 35 (1986), 1055-1057). The synaptic vesicles were dissected out of cerebral cortex from male Sprague-Dawley rats. The preparations were tested at four concentrations as double samples in parallel with control samples containing buffer. The incubation medium (pH 7.4) contains: 1.2 mM KH2 PO4, 5 mM KCl, 5 mM pyruvate, 1.2 mM glucose, 1.2 mM MgCl2, 114 mM NaCl, 25 mM NaHCO3. For the non-specific ^3 H-D-aspartate absorption, NaCl was replaced by 114 mM choline chloride and NaHCO3 by 25 mM KHCO3. An aliquot of the vesicle suspension (about 25 μg/ml of test solution) was added to the test sample which was temperature controlled at 37° C. and aerated with Carbogen (5% CO2, 95% O2) and preincubated for 2 minutes. The three minutes incubation for the amino acid absorption was started by addition of 50 μl of ^3 H-D-aspartate (specific activity 25 Ci/mmol, 10 pmol/ml of test solution). The vesicles were separated from the incubation medium by filtration and additional washing of the adhering labeled amino acids using a Titertek cell harvester (Flow Laboratories, Meckenheim). The ^3 H-D-aspartate absorption was measured by means of a liquid scintillation counter (Canberra-Packard, Model 1500, Frankfurt).
The preparation activity is indicated in percent of the specific ^3 H-D-aspartate absorption, relative to control values (100%), in Table 3. Adenosine triphosphate (ATP) was used for comparison as the standard substance (see Table 3) and at 1 mM caused a 35% increase in the ^3 H-D-aspartate absorption.

[3] = system: CA1 pyramidal cells of the hippocampus after forebrain ischemia; assay: Neuroprotection after forebrain ischemia in the gerbil; settings: for Cell necroses (% change) / Behavior score (% change): 15 minutes before ischemia; for Cell necroses (% change): histopathological score CA1, treated versus control group; for Behavior score (% change): treated versus control group
Protocol: A 5-minutes' ischemia of the forebrain with subsequent recirculation is produced in 20 male Mongolian gerbils under halothane anesthesia by bilateral closure of the corotid artery by means of aneurysm clips. 7 days later, the animals are decapitated under halothane anesthesia, the brains are fixed by immersion in Carnoy solution and the extent of neuron damage in the CA1 region of the hippocampus is determined "blind" with the aid of a 5-stage histopathological score. The test substance is administered intraperitoneally or orally 15 minutes before ischemia to each group of 10 gerbils. One ischemic control group, also of 10 animals, is treated with the respective solvents per test substance.

[4] = 50 mg/kg p.o., one hour before NMDA i.v., change compared to control group, read-out: Inhibition of convulsions
[5] = preparation concentration 100 μM
[6] = preparation concentration 10 μM
[7] = preparation concentration 500 μM
[8] = preparation concentration 1000 μM (1 mM)
[9] = read-out: Inhibition of mortality
[10] = one hour before NMDA i.v., change compared to control group, read-out: Inhibition of convulsions
[11] = one hour before NMDA i.v., change compared to control group, read-out: Inhibition of mortality

Work on `NCC1CC(CCC(=O)O)=NO1` (racemic) [Example 29, 5-Aminomethyl-2-isoxazoline-3-propionic acid, racemate] yielded an inhibition in vivo at 50 mg/kg (NMDA-induced cramps; [4]) of 20% and an LD50 ([1]; iv) of over 200 mg/kg.

In the case of `C[C@H]1C[C@@H](OC(=O)CCc2cc(CN)on2)CC(C)(C)C1` (relative stereo) [Example 9, cis-(3,3,5)trimethylcyclohexyl 5-aminomethylisoxazole-3-propionate toluene-4-sulfonate], the “Stimulation of the 3H-D-aspartate absorption, Stimulation (%)” value (shortened to “Stimulation … (%)”) [2, 5] is reported as 19%.

For `C[C@H]1C[C@@H](OC(=O)CCc2cc(C[N+](C)(C)C)on2)CC(C)(C)C1` (relative stereo) [Example 58, cis-(3,3,5)-trimethylcyclohexyl-5-trimethylammoniomethylisoxazole-3-propionate iodide], the “Stimulation … (%)” value [2, 6] was 35%.

In the case of `NCC1CC(CCC(=O)O)=NO1` (single isomer, unassigned) [Example 31, 5-Aminomethyl-2-isoxazoline-3-propionic acid, (+)-enantiomer], the “Stimulation … (%)” value [2, 7] is reported as 21%.

`CC(C)[C@H]1CC[C@H](C)C[C@@H]1OC(=O)CCC1=NOC(CN)C1` (single isomer, unassigned; (+)) [Example 27, (+)-Menthyl 5-aminomethyl-2-isoxazoline-3-propionate toluene-4-sulfonate] gave an inhibition in vivo at 50 mg/kg (NMDA-induced cramps; [4]) of 20% and an LD50 ([1]; iv) of 50 to 100 mg/kg.

Work on `CC(C)[C@@H]1CC[C@@H](C)C[C@H]1OC(=O)CCC1=NOC(CN)C1` (single isomer, unassigned; (-)) [Example 28, (-)-Menthyl 5-aminomethyl-2-isoxazoline-3-propionate toluene-4-sulfonate] yielded an inhibition in vivo at 50 mg/kg (NMDA-induced cramps; [4]) of 20%.

For `Nc1ncnc2c1ncn2[C@@H]1O[C@H](COP(=O)(O)OP(=O)(O)OP(=O)(O)O)[C@@H](O)[C@H]1O` [ATP, Adenosine triphosphate, reference compound], the “activity on 3H-D-aspartate absorption (in words)” value ([2]; at a lower concentration than 500 μm) was “inactive”, the “Stimulation … (%)” value [2, 7] was 31% and the “Stimulation … (%)” value [2, 8] was 35%. For the same compound, the “Stimulation … (%)” value ([2]; preparation concentration 2000 μM) was 57% and the “Stimulation … (%)” value ([2]; preparation concentration 5000 μM) was 121%.

With `Cl.O=C(C1=NOC(CN2CCCC2)C1)N1CCCC1` (centres unmarked) [Example 3, 5-Pyrrolidinomethyl-3-pyrrolidinocarbonyl-2-isoxazoline hydrochloride] the “Stimulation … (%)” value [2, 7] was 20%.

In the case of `CCOC(=O)CCc1cc(CN)on1.Cl` [Example 6, ethyl 5-aminomethylisoxazole-3-propionate hydrochloride], the “Stimulation … (%)” value [2, 6] is reported as 17%, the inhibition in vivo at 50 mg/kg (NMDA-induced cramps; [4]) is reported as 20% and the inhibition in vivo at 50 mg/kg (NMDA-induced cramps; [9]) is reported as 40%. For the same compound, the LD50 ([1]; iv) was over 100 mg/kg.

For `CCOP(C)(=O)CCc1cc(CN)on1` (centres unmarked) [Example 10, ethyl 2-(5-aminomethylisoxazole-3-yl)ethyl-2-(P-methyl)phosphinic acid hydrochloride], the “Stimulation … (%)” value [2, 7] was 23%, the inhibition in vivo at 50 mg/kg (NMDA-induced cramps; [4]) was 10% and the inhibition in vivo at 50 mg/kg (NMDA-induced cramps; 50 mg/kg p.o., one hour before NMDA i.v., change compared to control group, read-out: Inhibition of mortality) was 70%. The LD50 ([1]; iv) was over 100 mg/kg.

In the case of `CC(C)(N)c1cc(CCC(=O)O)no1` [Example 13, 5-(1-Amino-1-methylethyl)isoxazole-3-propionic acid], the “Stimulation … (%)” value [2, 7] is reported as 33%.

For `O=C(O)CCc1cc(CNCc2ccccc2)on1` [Example 14, 5-Benzylaminomethylisoxazole-3-propionic acid], the “Stimulation … (%)” value [2, 7] was 19%, the inhibition in vivo at 50 mg/kg (NMDA-induced cramps; [4]) was 40% and the LD50 ([1]; ip) was over 300 mg/kg.

In the case of `CN(C)Cc1cc(CCC(=O)O)no1` [Example 15, 5-Dimethylaminomethylizoxazole-3-propionic acid], the inhibition in vivo at 50 mg/kg (NMDA-induced cramps; [4]) is reported as 40%, the inhibition in vivo at 50 mg/kg (NMDA-induced cramps; [9]) is reported as 100% and the LD50 ([1]; iv) is reported as over 100 mg/kg.

For `CP(=O)(O)CCc1cc(CN)on1` [Example 16, 2-(5-Aminomethylisoxazol-3-yl)ethyl-2-(-methyl)phosphinic acid hydrochloride], the “Stimulation … (%)” value [2, 8] was 19%, the inhibition in vivo at 50 mg/kg (NMDA-induced cramps; read-out: Inhibition of convulsions) was 30% and the inhibition in vivo at 50 mg/kg (NMDA-induced cramps; [9]) was 30%. The “Cell necroses (% change)” value ([3]; 50 mg/kg p.o.) was -27 % change and the “Behavior score (% change)” value ([3]; 50 mg/kg p.o.) was 0 % change.

Compound `CC(=O)NCc1cc(CCC(=O)O)no1` [Example 17, 5-Acetamidomethylisoxazole-3-propionic acid] has an inhibition in vivo at 30 mg/kg (NMDA-induced cramps; 30 mg/kg p.o., one hour before NMDA i.v., change compared to control group, read-out: Inhibition of convulsions) of 30%, an inhibition in vivo at 30 mg/kg (NMDA-induced cramps; [9]) of 100% and an LD50 ([1]; ip) of over 300 mg/kg.

`N=C(N)NCc1cc(CCC(=O)O)no1` [Example 23, 5-Guanidinomethylisoxazole-3-propionic acid] gave an inhibition in vivo at 50 mg/kg (NMDA-induced cramps; [4]) of 40% and an LD50 ([1]; ip) of over 300 mg/kg.

For `NCc1cc(CCC(=O)NCC(=O)O)no1` [Example 24, N-(5-Aminomethylisoxazol-3-yl)propionylglycine], the “Stimulation … (%)” value [2, 7] was 28%.

In the case of `Cl.NCc1cc(CCO)no1` [Example 25, 5-Aminomethyl-3-(2-hydroxyethyl)isoxazole hydrochloride], the “Stimulation … (%)” value [2, 7] is reported as 20%.

Work on `N.N.O=C(O)CCc1cc(CNCc2cc(CCC(=O)O)no2)on1` [Example 26, Bis(3-[2-carboxyethyl]isoxazol-5-ylmethyl)amine diammonium salt] yielded an inhibition in vivo at 50 mg/kg (NMDA-induced cramps; [4]) of 40% and an LD50 ([1]; iv) of over 100 mg/kg.

In the case of `CC(=O)NCC1CC(CCC(=O)O)=NO1` (centres unmarked) [Example 32], the “Stimulation … (%)” value [2, 5] is reported as 19%, the inhibition in vivo at 50 mg/kg (NMDA-induced cramps; [4]) is reported as 30% and the inhibition in vivo at 50 mg/kg (NMDA-induced cramps; [9]) is reported as 50%. The LD50 ([1]; iv) was over 100 mg/kg.

With `CN(C)C(=O)C1=NOC(CN)C1` (centres unmarked) [Example 39] the “Stimulation … (%)” value [2, 8] was 14%.

With `Cl.NCc1cc(CCC(N)=O)no1` [Example 50, 5-aminomethylisoxazole-3-propionamide hydrochloride] the “Stimulation … (%)” value [2, 7] was 15%.

Compound `O=C(O)CCc1cc(CNC(=O)CCC[N+](=O)[O-])on1` [Example 53] has an inhibition in vivo at 50 mg/kg (NMDA-induced cramps; [4]) of 33%.

In the case of `COC(=O)CCc1cc(C=NO)no1` [Example 55, methyl-3-hydroxyliminomethyl-isoxazole-5-propionate], the inhibition in vivo at 50 mg/kg (NMDA-induced cramps; [4]) is reported as 33% and the inhibition in vivo at 50 mg/kg (NMDA-induced cramps; [9]) is reported as 100%.

In the case of `C[C@]12N[C@H](Cc3ccccc31)c1ccccc12` [MK 801, (+)-5-methyl-10,11-dihydro-5H-dibenzo[a,d]cyclohept-5-en-10-imine, reference compound], the inhibition in vivo at 0.3 mg/kg (NMDA-induced cramps; [10]) is reported as 60%, the inhibition in vivo at 0.3 mg/kg (NMDA-induced cramps; [11]) is reported as 60% and the LD50 ([1]; iv) is reported as 30 to 60 mg/kg.

For `NCc1cc(=O)[nH]o1` [Muscimol, 5-(aminomethyl)-3(2H)-isoxazolone, reference compound], the inhibition in vivo at 0.3 mg/kg (NMDA-induced cramps; [10]) was 40%, the inhibition in vivo at 0.3 mg/kg (NMDA-induced cramps; [11]) was 60% and the LD50 ([1]; iv) was 3 to 10 mg/kg. For the same compound, the “Cell necroses (% change)” value ([3]; 5 mg/kg i.p.) was -74 % change, the “Behavior score (% change)” value ([3]; 5 mg/kg i.p.) was “+41 % change” and the “post-ischemic neurological symptoms, behavior score (in words)” value ([3]; summary of Table 7) was “distinctly more negative post-ischemic symptoms in the behavior score”. For the same compound, the “protection of cerebral nerve cells / dying cells (in words)” value ([3]; summary of Table 7) was “reduction in the dying cells”.
